Tests used:
[1] = system: Dspp gene; experiment: mRNA level of Dspp gene in MDPC-23 cells by real-time PCR; type: cell-based, mouse; settings: 48 hours, ratio relative to Dspp mRNA level of control group, triplicate
Experimental: The MDPC-23 cells cultured in Example 2-1 were treated with the peptides of the respective groups which were synthesized in Example 1, and cultured for 48 hours. Then, mRNA levels of an odontoblast differentiation marker Dspp gene expressed in the MDPC-23 cells were measured, and a ratio of the measured Dspp mRNA level relative to a Dspp mRNA level measured in a control group was calculated, respectively (Tables 13 to 24). Further, mean values of the Dspp mRNA levels measured in the peptides of respective groups were compared between the groups (FIG. 1B). In this regard MDPC-23 cells which were treated with none of the peptides of the present invention were used as a control group.
The expression levels of the Dspp gene were measured by RT-PCR and real time PCR analysis: In detail, total RNA was extracted from the MDPC-23 cells with TRIzol reagent. 2 μg of the total RNA, 1 μl of reverse transcriptase, and 0.5 μg oligo (dT) were used to synthesize cDNA. The synthesized cDNA were used in real-time polymerase chain reaction. The real-time polymerase chain reaction was performed on an ABI PRISM 7500 sequence detection system (Applied Biosystems) using the following primers and a SYBR GREEN PCR Master Mix (Takara, Japan). The real-time polymerase chain reaction was performed under conditions of 94° C., 1 min; 95° C., 15 sec 60° C., 34 sec for 40 cycles. Results were analyzed by a comparative cycle threshold (CT) method. In this regard, Gapdh gene was used as an internal control. The experiments were performed in triplicate, and then mean values and standard deviations thereof were taken as measured values.

[2] = system: DSP; experiment: Immunostaining of transplanted tissues for DSP; type: in vivo, immunocompromised mice
Description: (§1) Briefly, the removed tissues were fixed in 4% paraformaldehyde, decalcified in 10% EDTA (pH 7.4), embedded in paraffin, and then immunostained with anti-DSP and anti-BSP antibodies at a dilution of 1:150 as primary antibodies, and reacted with biotin-labeled goat anti-rabbit IgG (Vector Labs) as secondary antibodies to determine DSP and BSP levels (FIG. 4). In this regard, the tissue transplanted with an implant including none of the peptides of the present invention was used as a control group.
(§2) In this regard, a tissue transplanted with an implant including none of the peptides of the present invention was used as a control group.

[3] = system: BSP; experiment: Immunostaining of transplanted tissues for BSP; type: in vivo, immunocompromised mice
Description: as §1, §2

[4] = system: physiologic dentin (tertiary dentin); experiment: Indirect pulp capping canine model, physiologic (tertiary) dentin formation; type: in vivo, dogs; settings: 1.5 μg, 3 weeks
Description: In detail, to establish dentin-damaged canine models by indirect pulp capping, a part of enamel in the cervical part was removed from the premolars of 12-month-old adult dogs by using a dental bur. The dentin was shallowly removed according to the exposure degree of the dentin to form a shallow cavity, thereby establishing a shallow cavity model. The dentin was deeply removed such that the dental pulp was seen through, but not exposed to the outside, thereby establishing a deep cavity model. The models were treated with the control group, the peptide of Group 11, or the peptide of Group 12. 3 weeks later, the adult dogs were euthanized, and teeth were extracted therefrom.
(§3) The extracted teeth were fixed in 4% paraformaldehyde for 2.4 hours, washed with PBS (pH 7.4) several times, and then decalcified with 10% formic acid. The decalcified teeth were embedded in paraffin to prepare tissue sections. The tissue sections were stained with hematoxylin/eosin (H&E), and dentin regeneration capabilities were evaluated by histological analysis.

[5] = system: physiologic dentin (tertiary dentin); experiment: Direct pulp capping canine model, physiologic (tertiary) dentin formation; type: in vivo, dogs; settings: exposed pulp, peptide 1.5 μg, sealed with MTA, covered with GI cement, 3 weeks, FIG. 12
Experimental: In detail, to establish dentin-damaged canine models by direct pulp capping, the enamel and dentin in the cervical part were removed from the premolars of 12-month-old adult dogs by using a dental bur so that the dental pulp was exposed to the outside. The models were treated with the control group, the peptide of Group 11, or the peptide of Group 12. 3 weeks later, the adult dogs were euthanized and teeth were extracted therefrom.
as §3, with “24” for “2.4”

[6] = system: root canal spaces of human teeth; experiment: Implant transplanted into root canal spaces of human teeth (H-E, SEM); type: in vivo; settings: 6 weeks
Experimental: Reportedly, the dentinal wall and the empty pulp cavity of a natural tooth provide the specific local environment for the regeneration of dentin/pulp-like tissues by dental pulp cells (Huang G T, et al. (2010) Tissue engineering. Part A 16(2):605-615). Therefore, formation of dentin/pulp-like tissues in root canal spaces was evaluated.
In detail, among the implants prepared in Example 3-1, a comparative implant or an implant including the peptide of Group 12 (SEQ ID NO: 96) at a concentration of 10 μg/ml was transplanted into the root canal spaces of human teeth for 6 weeks, and dentin dental pulp-like tissues formed in the respective implants were subjected to hematoxylin-eosin (H-E) staining according to the method of Example 3-1, and photographed by a scanning electron microscope according to the method of Example 3-7 (FIG. 9).

[7] = 6 weeks after transplantation, FIG. 4
[8] = 12 weeks after transplantation, FIG. 7
[9] = deep cavity model, together with GI cement, FIG. 11

Row | Substance | mRNA level of Dspp gene, Mean [1] | also measured
1 | 67 (KYKQRRKNKY; Synthetic construct of novel peptide) [compound 67] | 1.777 | –
2 | 68 (KYKQRRRNKY; Synthetic construct of novel peptide) [compound 68] | 1.432 | –
3 | 69 (KYKQKKKNKY; Synthetic construct of novel peptide) [compound 69] | 2.011 | –
4 | 70 (KYKQKRKNKY; Synthetic construct of novel peptide) [compound 70] | 1.927 | –
5 | 71 (KYKQKKRNKY; Synthetic construct of novel peptide) [compound 71] | 1.879 | –
6 | 72 (KYKQKRRNKY; Synthetic construct of novel peptide) [compound 72] | 2.011 | –
7 | 73 (KYKQRKKSKY; Synthetic construct of novel peptide) [compound 73] | 2.035 | –
8 | 74 (KYKQRKRSKY; Synthetic construct of novel peptide) [compound 74] | 2.011 | –
9 | 75 (KYKQRRKSKY; Synthetic construct of novel peptide) [compound 75] | 1.997 | –
10 | 76 (KYKQRRRSKY; Synthetic construct of novel peptide) [compound 76] | 2.351 | –
11 | 77 (KYKQKKKSKY; Synthetic construct of novel peptide) [compound 77] | 1.729 | –
12 | 78 (KYKQKRKSKY; Synthetic construct of novel peptide) [compound 78] | 2.635 | –
13 | 79 (KYKQKKRSKY; Synthetic construct of novel peptide) [compound 79] | 2.231 | –
14 | 80 (KYKQKRRSKY; Synthetic construct of novel peptide) [compound 80] | 1.837 | –
15 | 81 (KYKQRKKNYK; Synthetic construct of novel peptide) [compound 81] | 3.092 | –
16 | 82 (KYKQRKRNYK; Synthetic construct of novel peptide) [compound 82] | 3.361 | –

Row | Substance | mRNA level of Dspp gene, Mean [1] | also measured
17 | 83 (KYKQRRKNYK; Synthetic construct of novel peptide) [compound 83] | 3.572 | –
18 | 84 (KYKQRRRNYK; Synthetic construct of novel peptide) [compound 84] | 3.702 | –
19 | 85 (KYKQKKKNYK; Synthetic construct of novel peptide) [compound 85] | 3.670 | –
20 | 86 (KYKQKRKNYK; Synthetic construct of novel peptide) [compound 86] | 3.705 | –
21 | 87 (KYKQKKRNYK; Synthetic construct of novel peptide) [compound 87] | 3.888 | –
22 | 88 (KYKQKRRNYK; Synthetic construct of novel peptide) [compound 88] | 4.021 | –
23 | 89 (KYKQRKKSYK; Synthetic construct of novel peptide) [compound 89] | 4.211 | –
24 | 90 (KYKQRKRSYK; Synthetic construct of novel peptide) [compound 90] | 4.811 | –
25 | 91 (KYKQRRKSYK; Synthetic construct of novel peptide) [compound 91] | 4.362 | –
26 | 92 (KYKQRRRSYK; Synthetic construct of novel peptide) [compound 92] | 4.211 | –
27 | 93 (KYKQKKKSYK; Synthetic construct of novel peptide) [compound 93] | 4.525 | –
28 | 94 (KYKQKRKSYK; Synthetic construct of novel peptide) [compound 94] | 3.836 | –
29 | 95 (KYKQKKRSYK; Synthetic construct of novel peptide) [compound 95] | 4.620 | –
30 | 96 (KYKQKRRSYK; Synthetic construct of novel peptide) [compound 96] | 5.211 | –
31 | KYKQKKRNYK (Synthetic construct of novel peptide) [SEQ ID NO: 87] | – | DSP expression level [2, 7]: relatively high DSP expression level; DSP expression level [2, 8]: relatively very high DSP expression levels; BSP expression level [3, 7]: low BSP expression level; BSP expression level [3, 8]: low BSP expression level; dentin regeneration (histological analysis, H&E) [4, 9]: regeneration of physiologic tertiary dentin (TD) which was continuous with the odontoblast processes of the original dentin structure was observed; dentin regeneration (histological analysis, H&E) ([4]; shallow cavity model, FIG. 10): regeneration of physiologic tertiary dentin (TD) which was continuous with the odontoblast processes of the original dentin structure was observed; dentin regeneration (histological analysis, H&E) [5]: new physiologic dentin (TD) which was continuous with the odontoblast processes of the original dentin was formed
32 | KYKQKRRSYK (Synthetic construct of novel peptide) [SEQ ID NO: 96] | – | DSP expression level [2, 7]: relatively high DSP expression level; DSP expression level [2, 8]: relatively very high DSP expression levels; BSP expression level [3, 7]: low BSP expression level; BSP expression level [3, 8]: low BSP expression level; pulp-like tissue formation inside root canals (H-E) ([6]; 10 μg/ml, FIG. 9): vascularized pulp-like tissues were formed; newly formed dentin in root canal (H-E) ([6]; FIG. 9 C, D and D′): newly formed dentin was observed in the existing dentinal wall; odontoblast-like cells on existing dentinal wall (H-E) ([6]; FIG. 9 C, D and D′): odontoblast-like cells exhibited a palisade arrangement on the existing dentinal wall; odontoblast-like cells on existing dentinal wall (scanning microscopic images) ([6]; FIG. 9 G and H): odontoblast-like cells exhibited a palisade arrangement on the existing dentinal wall; dentin regeneration (histological analysis, H&E) [4, 9]: regeneration of physiologic tertiary dentin (TD) which was continuous with the odontoblast processes of the original dentin structure was observed; dentin regeneration (histological analysis, H&E) ([4]; shallow cavity model, FIG. 10): regeneration of physiologic tertiary dentin (TD) which was continuous with the odontoblast processes of the original dentin structure was observed; dentin regeneration (histological analysis, H&E) [5]: new physiologic dentin (TD) which was continuous with the odontoblast processes of the original dentin was formed
